The target in one data set is T1, collagen type I gels (Bos taurus, UniProt P02453+P02465).
T1 construct: purchased Inamed, Freemont, Calif; Nutragen
Put plainly: Viscoelastic characterization of collagen type I gels (rheometer). It is filed as biochemical. As to conditions: varying ratios of collagen to additive, vs untreated collagen. As for the experimental part: Gels were made with Nutragen collagen (Inamed, Freemont, Calif.) at a final concentration of 4 mg/mL collagen. Nutragen stock is 6.4 mg/mL in 10 mM HCl. Gel preparation was performed on ice, and fresh samples were made before each test. The collagen solution was adjusted to physiologic pH and salt concentration, by adding appropriate volumes of 10×PBS (phosphate buffered saline), 1×PBS, and 1M NaOH. For most experiments, samples of DS, decorin, DS-SILY, or DS-Dc13 were added at a 10:1 collagen:treatment molar ratio by a final 1×PBS addition (equal volumes across treatments) in which the test samples were dissolved at appropriate concentrations. In this way, samples are constantly kept at pH 7.4 and physiologic salt concentration. Collagen-alone samples received a 1×PBS addition with no sample dissolved. Fibrillogenesis will be induced by incubating neutralized collagen solutions at 37° C. overnight in a humidified chamber to avoid dehydration. Gel solutions with collagen:treatment molar ratios of other than 10:1 were prepared similarly. Collagen gels were prepared as described in EXAMPLE 16 and prior to heating, 200 μL of each treatment were pipetted onto the wettable surface of hydrophobically printed slides (Tekdon). The PTFE printing restricted gels to the 20 mm diameter wettable region. Gels were formed in a humidified incubator at 37° C. overnight prior to mechanical testing. […]

The target in data set [1] is T2, collagen (Bos taurus, UniProt P02453+P02465).
T2 construct: purchased Inamed, Freemont, Calif; Nutragen
Description: Fibrillogenesis turbidity assay (absorbance at 313 nm). It is filed as biochemical. As for the experimental part:
(§1) Gels were made with Nutragen collagen (Inamed, Freemont, Calif.) at a final concentration of 4 mg/mL collagen. Nutragen stock is 6.4 mg/mL in 10 mM HCl. Gel preparation was performed on ice, and fresh samples were made before each test. The collagen solution was adjusted to physiologic pH and salt concentration, by adding appropriate volumes of 10×PBS (phosphate buffered saline), 1×PBS, and 1M NaOH. For most experiments, samples of DS, decorin, DS-SILY, or DS-Dc13 were added at a 10:1 collagen:treatment molar ratio by a final 1×PBS addition (equal volumes across treatments) in which the test samples were dissolved at appropriate concentrations. In this way, samples are constantly kept at pH 7.4 and physiologic salt concentration. Collagen-alone samples received a 1×PBS addition with no sample dissolved. Fibrillogenesis will be induced by incubating neutralized collagen solutions at 37° C. overnight in a humidified chamber to avoid dehydration. Gel solutions with collagen:treatment molar ratios of other than 10:1 were prepared similarly.
Collagen fibrillogenesis was monitored by measuring turbidity related absorbance at 313 nm providing information on rate of fibrillogenesis and fibril diameter. Gel solutions were prepared as described in EXAMPLE 16 (4 mg/mL collagen, 10:1 collagen:treatment, unless otherwise indicated) and 50 uL/well were added at 4° C. to a 384-well plate. The plate was kept at 4° C. for 4 hours before initiating fibril formation. A SpectraMax M5 at 37° C. was used to measure absorbance at 313 nm at 30 s intervals for 6 hours.
A fibrillogenesis assay as described for DS-SILY, EXAMPLE 19, performed with the conjugate DS-Dc13.

The target in another data set is T3, collagen I (Bos taurus, UniProt P02453+P02465).
T3 construct: purchased Inamed, Freemont, Calif; Nutragen
Put plainly: Cryo-SEM measurements on collagen I, fibril diameter. The data set is classed as biochemical. To be noted: 4 mg/mL collagen, 10:1 collagen:treatment, cryo-SEM 20,000×. As for the experimental part: as §1
Gels for cryo-SEM were formed, as in EXAMPLE 16, directly on the SEM stage and incubated at 37° C. overnight. The stages were then secured in a cryo-holder and plunged into liquid nitrogen slush. Samples were then transferred to a Gatan Alto 2500 pre-chamber cooled to −170° C. under vacuum. A free-break surface was created with a cooled scalpel, and each sample evaporated under sublimation conditions for 20 min. The sample was coated by platinum sputter coating for 120 s. Samples were transferred to the cryo-stage at −130° C. and regions with similar orientation were imaged for comparison across treatments. Analysis of the images was performed to determine the fibril diameter distribution, presented in histograms adjacent the corresponding image in FIG. 14, and average fibril diameter, FIG. 17 an 18;. Fibril diameter was calculated using ImageJ software (NIH) measuring individual fibrils by hand (drawing a line across fibrils and measuring its length after properly setting the scale). At least 45 independent fibril measurement were recorded for average fibril diameter calculations.

For data set [2], the system named is Human coronary artery smooth muscle cells (HCA SMC). Description: Gel compaction by smooth muscle cells in collagen gels. It is filed as cell-based. As for the experimental part:
Human coronary artery smooth muscle cells (HCA SMC) (Cascade Biologics) were cultured in growth medium (Medium 231 supplemented with smooth muscle growth factor). Cells from passage 3 were used for all experiments. Differentiation medium (Medium 231 supplemented with 1% FBS and 1× pen/strep) was used for all experiments unless otherwise noted.
Collagen gels were prepared with each additive as described with the exception that the 1×PBS example addition was omitted to accommodate the addition of cells in media. After incubating on ice for 30 min, HCA SMCs in differentiation medium were added to the gel solutions to a final concentration of 1×10^6 cells/mL. Gels were formed in quadruplicate in 48-well non-tissue culture treated plates (Costar) for 6 hrs before adding 500 μL/well differentiation medium. Gels were freed from the well edges after 24 hrs. Medium was changed every 2-3 days and images for compaction were taken at the same time points using a Gel Doc System (Bio-Rad). The cross-sectional area of circular gels correlating to degree of compaction was determined using ImageJ software (NIH). Gels containing no cells were used as a negative control and cells in collagen gels absent additive were used as a positive control. […] By day 10 all gels had compacted to approximately 10% of the original gel area, and differences between additives were small.

For a further data set, the system named is HCA SMCs. Put plainly: Measurement of elastin (Fastin assay) in cell-seeded collagen gels. The data set is classed as cell-based, human. As to conditions: gels cultured for 10 days. As for the experimental part: Collagen gels seeded with HCA SMCs were prepared as described in EXAMPLE 30. Differentiation medium was changed every three days and gels were cultured for 10 days. Collagen gels containing no cells were used as a control. Gels were rinsed in 1×PBS overnight to remove serum protein, and gels were tested for elastin content using the Fastin elastin assay per manufacturers protocol (Biocolor, County […].). Briefly, gels were solubilized in 0.25 M oxalic acid by incubating at 100° C. for 1 hr. Elastin was precipitated and samples were then centrifuged at 11,000×g for 10 min. The solubilized collagen supernatant was removed and the elastin pellet was stained by Fastin Dye Reagent for 90 min at room temperature. Samples were centrifuged at 11,000×g for 10 min and unbound dye in the supernatant was removed. Dye from the elastin pellets was released by the Fastin Dye Dissociation Reagent, and 100 μL samples were transferred to a 96-well plate (Costar). Absorbance was measured at 513 nm, and elastin content was calculated from an α-elastin standard curve.

The target in another data set is T4, collagen gels (Bos taurus, UniProt P02453+P02465).
T4 construct: purchased Inamed, Freemont, Calif; Nutragen
Description: Cryo-SEM measurement of fibril density. It is filed as biochemical. As to conditions: 10:1 molar ratio, cryo-SEM 10,000×. As for the experimental part: Collagen gels were formed in the presence of each additive at a 10:1 molar ratio, as described in EXAMPLE 16, directly on the SEM stage, processed, and imaged as described. Images at 10,000× were analyzed for fibril density calculations. Images were converted to 8-bit black and white, and threshold values for each image were determined using ImageJ software (NIH). The threshold was defined as the value where all visible fibrils are white, and all void space is black. The ratio of white to black area was calculated using MatLab software. All measurements were taken in triplicate and thresholds were determined by an observer blinded to the treatment.

The subject of data set [3] is collagen. Put plainly: SILY binding to collagen (Biacore surface plasmon resonance). As for the experimental part:
Biacore studies were performed on a Biacore 2000 using a CM-3 chip (Biacore, Inc., Piscataway, N.J.). The CM-3 chip is coated with covalently attached carboxymethylated dextran, which allows for attachment of the substrate collagen via free amine groups. Flow cells (FCs) 1 and 2 were used, with FC-1 as the reference cell and FC-2 as the collagen immobilized cell. Each FC was activated with EDC-NHS, and 1500RU of collagen was immobilized on FC-2 by flowing 1mg/mL collagen in sodium acetate, pH 4, buffer at 5 μL/min for 10 min. Unreacted NHS-ester sites were capped with ethanolamine; the control FC-1 was activated and capped with ethanolamin.
To determine peptide binding affinity, SILY was dissolved in 1× HBS-EP buffer (Biacore) at varying concentrations from 100 uM to 1.5 μm in 2-fold dilutions. […] The first 10 injections were buffer injections, which help to prime the system, followed by randomized sample injections, run in triplicate. Analysis was performed using BIAevaluation software (Biacore).
In general terms: SPR reads the build-up and loss of mass on a sensor chip optically.

Data set [4] concerns Human aortic smooth muscle cells. Put plainly: Collagen remodeling: hydroxyproline content in medium of cell-seeded collagen gels. The data set is classed as cell-based. To be noted: vs collagen alone; cultures up to 30 days. As for the experimental part: Following a method by Grassl, et al. (Grassl, et al., Journal of Biomedical Materials Research 2002, 60, (4), 607-612), which is herein incorporated in its entirety, collagen gels with or without synthetic PG mimics were formed as described in EXAMPLE 16. Human aortic smooth muscle cells (Cascade Biologics, Portland, Oreg.) were seeded within collagen gels by adding 4×10^6 cells/mL to the neutralized collagen solution prior to incubation. The cell-collagen solutions were pipetted into an 8-well Lab-Tek chamber slide and incubated in a humidified 37° C. and 5% CO2 incubator. After gelation, the cell-collagen gels will be covered with 1 mL Medium 231 as prescribed by Cascade. Every 3-4 days, the medium was removed from the samples and the hydroxyproline content measured by a standard hydroxyproline assay (Reddy, 1996).
To measure degraded collagen in the supernatant medium, the sample was lyophilized, the sample hydrolyzed in 2M NaOH at 120° C. for 20 min. After cooling, free hydroxyproline was oxidized by adding chloramine-T (Sigma) and reacting for 25 min at room temperature. Ehrlich's aldehyde reagent (Sigma) was added and allowed to react for 20 min at 65° C. and followed by reading the absorbance at 550 nm on an M-5 spectrophotometer (Molecular Devices). […] Cultures were incubated for up to 30 days and three samples of each treatment measured. […]

The next data set deals with Human dermal fibroblasts. Put plainly: TGF-β1 production by human dermal fibroblasts (ELISA). To be noted: 1.4 μM treatment, 48 hours. The data set is classed as cell-based. As for the experimental part: Human dermal fibroblasts (Cascade Biologics) were seeded onto 96-well tissue culture polystyrene plates at a seeding density of 1.83×10^3 cells/well. Cells adhered overnight and cell medium was aspirated. 100 μL/well of cell medium containing a final concentration of 1.4 μM treatment delivered from a concentrated solution of treatment in 1×PBS was added to the cells. After 48 hours, cell medium was removed and frozen at −80 C until further testing. TGF-β1 was measured by ELISA using a kit and protocol from R&D Systems.
For orientation: An ELISA detects its analyte on a solid surface through an enzyme-linked reagent.

Ends that are not written are not given here.

The term Kd denotes the free concentration of one partner at which half of the binding sites on the other are occupied at equilibrium, for simple one-to-one binding.

T3 sequence (P02453 162-1217 limits assumed): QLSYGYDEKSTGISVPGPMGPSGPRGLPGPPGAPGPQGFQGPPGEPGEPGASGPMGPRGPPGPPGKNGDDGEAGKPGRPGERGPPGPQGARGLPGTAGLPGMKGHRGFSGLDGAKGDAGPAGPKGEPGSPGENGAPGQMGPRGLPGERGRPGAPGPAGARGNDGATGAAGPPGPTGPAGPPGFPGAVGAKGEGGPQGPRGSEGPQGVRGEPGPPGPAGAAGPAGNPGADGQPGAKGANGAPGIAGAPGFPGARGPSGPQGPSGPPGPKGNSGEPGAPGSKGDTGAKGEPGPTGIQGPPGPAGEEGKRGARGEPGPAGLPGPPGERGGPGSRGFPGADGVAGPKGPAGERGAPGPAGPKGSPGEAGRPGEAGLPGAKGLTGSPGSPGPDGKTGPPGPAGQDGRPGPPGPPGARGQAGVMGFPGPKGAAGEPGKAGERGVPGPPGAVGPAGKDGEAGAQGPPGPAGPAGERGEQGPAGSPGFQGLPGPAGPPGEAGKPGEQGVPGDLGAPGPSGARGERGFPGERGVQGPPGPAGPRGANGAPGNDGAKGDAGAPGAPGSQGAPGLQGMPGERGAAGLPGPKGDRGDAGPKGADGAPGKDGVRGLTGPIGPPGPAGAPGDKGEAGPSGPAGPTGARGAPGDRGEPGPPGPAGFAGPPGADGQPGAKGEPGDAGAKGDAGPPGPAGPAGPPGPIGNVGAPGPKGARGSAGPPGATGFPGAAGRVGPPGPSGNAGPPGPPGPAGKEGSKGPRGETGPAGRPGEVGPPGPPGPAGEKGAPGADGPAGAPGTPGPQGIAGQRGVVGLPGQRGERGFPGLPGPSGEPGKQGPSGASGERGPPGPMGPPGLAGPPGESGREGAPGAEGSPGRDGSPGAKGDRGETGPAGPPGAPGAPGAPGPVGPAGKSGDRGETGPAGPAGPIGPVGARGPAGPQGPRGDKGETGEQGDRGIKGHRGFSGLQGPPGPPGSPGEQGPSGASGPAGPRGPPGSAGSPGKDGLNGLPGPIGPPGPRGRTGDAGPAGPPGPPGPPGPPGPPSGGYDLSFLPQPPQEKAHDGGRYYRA
T3 sequence (P02465 80-1117 limits assumed): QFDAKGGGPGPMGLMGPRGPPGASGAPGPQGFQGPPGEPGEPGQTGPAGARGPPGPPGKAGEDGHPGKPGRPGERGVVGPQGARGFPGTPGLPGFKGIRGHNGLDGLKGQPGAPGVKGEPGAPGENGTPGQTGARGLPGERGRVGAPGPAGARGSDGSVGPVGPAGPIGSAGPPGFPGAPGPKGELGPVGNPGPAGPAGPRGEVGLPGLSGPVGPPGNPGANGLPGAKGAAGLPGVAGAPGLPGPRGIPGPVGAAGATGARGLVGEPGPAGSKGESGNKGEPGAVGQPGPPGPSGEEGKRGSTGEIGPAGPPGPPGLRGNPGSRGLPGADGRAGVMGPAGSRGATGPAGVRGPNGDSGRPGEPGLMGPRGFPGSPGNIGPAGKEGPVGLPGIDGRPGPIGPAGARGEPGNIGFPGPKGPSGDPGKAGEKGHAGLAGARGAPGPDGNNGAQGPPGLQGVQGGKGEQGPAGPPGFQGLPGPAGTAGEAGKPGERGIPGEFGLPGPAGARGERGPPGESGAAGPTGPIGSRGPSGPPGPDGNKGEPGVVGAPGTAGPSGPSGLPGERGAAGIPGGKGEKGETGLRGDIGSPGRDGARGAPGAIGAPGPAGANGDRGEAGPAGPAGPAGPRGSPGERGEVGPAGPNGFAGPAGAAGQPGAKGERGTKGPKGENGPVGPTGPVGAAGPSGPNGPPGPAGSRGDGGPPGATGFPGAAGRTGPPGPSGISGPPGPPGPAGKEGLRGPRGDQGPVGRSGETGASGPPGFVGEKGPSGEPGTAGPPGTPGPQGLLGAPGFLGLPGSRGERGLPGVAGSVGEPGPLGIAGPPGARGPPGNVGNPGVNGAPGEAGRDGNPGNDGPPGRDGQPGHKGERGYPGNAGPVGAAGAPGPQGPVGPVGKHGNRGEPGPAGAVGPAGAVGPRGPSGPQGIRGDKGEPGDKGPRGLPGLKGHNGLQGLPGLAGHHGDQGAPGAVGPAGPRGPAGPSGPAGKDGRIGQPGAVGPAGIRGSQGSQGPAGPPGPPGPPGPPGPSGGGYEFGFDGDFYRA
T1 sequence (P02453 162-1217 limits assumed): as the sequence (P02453 162-1217 limits assumed) above
T1 sequence (P02465 80-1117 limits assumed): as the sequence (P02465 80-1117 limits assumed) above
T4 sequence (P02453 162-1217 limits assumed): as the sequence (P02453 162-1217 limits assumed) above
T4 sequence (P02465 80-1117 limits assumed): as the sequence (P02465 80-1117 limits assumed) above
T2 sequence (P02453 162-1217 limits assumed): as the sequence (P02453 162-1217 limits assumed) above
T2 sequence (P02465 80-1117 limits assumed): as the sequence (P02465 80-1117 limits assumed) above

Regarding “DS-Dc13: dermatan sulfate conjugated via PDPH to Dc13 peptide, molar ratio about 1 (SYIRIADTNITGC; also: dermatan sulfate conjugate via PDPH, molar ratio about 1, site not given here)”, the “stiffness of collagen gel (storage modulus G')” value in the data set with collagen type I gels is listed as “increase the stiffness of the resulting collagen gel over untreated collagen”. Besides, the rate of fibrillogenesis entry in the data set with collagen [1] (4 mg/mL collagen, 10:1 collagen:treatment unless otherwise indicated) is listed as “decrease the rate of fibrillogenesis”. Also, the “fibrillogenesis and overall absorbance” value in the data set with collagen [1] (1:1 or 10:1 collagen to treatment, FIG. 12) was “delays fibrillogenesis and decreases overall absorbance in a dose-dependent manner”. In addition, the average fibril diameter entry with collagen I was “significant decrease in average fibril diameter”. Further, in data set [2] (Days 3 and 5), the “gel compaction at early time points” value is “significantly compacted more than gels made of collagen alone or collagen with dermatan sulfate”. For the same substance, the gel compaction entry in data set [2] (day 10) is “slightly, but significantly, less compact than gels treated with decorin or collagen”. The elastin production result in the data set on HCA SMCs is “significantly decreased elastin production over untreated collagen”. The “fibril density (ratio of fibril containing area to void space)” value with collagen gels is listed as “not significant compared to collagen”.

Consider RRANAALKAGELYKSILYGC, for which the “reversibility of binding to collagen” value in the data set on collagen [3] (association/disassociation curves, FIG. 2) was “binds reversibly with collagen”. Further, at collagen [3] (calculated from the on-off binding kinetics, collagen immobilized on CM-3 chip), the Kd is 1.2 µM. For the same substance, the average fibril diameter result on collagen I is given as “significant decrease in average fibril diameter”. For the same substance, the “collagen degradation measured by hydroxyproline content in cell medium” value in data set [4] is recorded as “greater collagen degradation compared to collagen alone”. For the same substance, in the data set on Human dermal fibroblasts, the “TGF-β1 in cell medium” value is given as “significantly decreased TGF-β1”. Besides, the “fibril density (ratio of fibril containing area to void space)” value at collagen gels is recorded as “significantly greater fibril density”.

In the case of dermatan sulfate [reference compound], the “stiffness of collagen gel (storage modulus G')” value on collagen type I gels is “increase the stiffness of the resulting collagen gel over untreated collagen”. Besides, in the data set with Human dermal fibroblasts, the “TGF-β1 in cell medium” value is “significantly decreased TGF-β1”. Further, the elastin production result in the data set with HCA SMCs was “significantly decreased elastin production over untreated collagen”.

The values above are taken from patent US20170283458A1, “COLLAGEN-BINDING SYNTHETIC PEPTIDOGLYCANS FOR WOUND HEALING” (Symic Biomedical, Inc., priority 2009, published 2017).
